Several values for one entry are separate records, joined by “and”; a condition that tells them apart may be missing. Identical values can stand only once.
Settings: 283.16 K, Liquid, Vibrating tube method

CCCC(=O)OCC(COC(=O)CCC)(COC(=O)CCC)COC(=O)CCC [pentaerythritol tetrabutyrate]
Settings	mass density
961.7 kPa	1059.5 kg/m3
999.7 kPa	1059.6 kg/m3
1040.4 kPa	1059.6 kg/m3
1083.6 kPa	1059.5 kg/m3
1139.2 kPa	1059.6 kg/m3
1188.5 kPa	1059.7 kg/m3
1241.1 kPa	1059.6 kg/m3
1292.9 kPa	1059.7 kg/m3
1371.5 kPa	1059.9 kg/m3
1415.8 kPa	1059.8 kg/m3
1495.3 kPa	1059.8 kg/m3
1575.5 kPa	1059.9 kg/m3
1654.8 kPa	1060 kg/m3
1780.7 kPa	1060 kg/m3
1864.8 kPa	1060 kg/m3
1998.8 kPa	1060 kg/m3
2122.7 kPa	1060.1 kg/m3
2233.6 kPa	1060.3 kg/m3
2404.2 kPa	1060.4 kg/m3
2613.1 kPa	1060.5 kg/m3
2776.8 kPa	1060.6 kg/m3
2989.2 kPa	1060.8 kg/m3
3065.6 kPa	1060.8 kg/m3
3087.4 kPa	1060.8 kg/m3
3106 kPa	1060.8 kg/m3
3124.9 kPa	1060.8 kg/m3
3144.5 kPa	1060.9 kg/m3
3170 kPa	1060.8 kg/m3
3189.5 kPa	1060.9 kg/m3
3209.5 kPa	1060.9 kg/m3
3233.2 kPa	1060.9 kg/m3
3253.5 kPa	1060.9 kg/m3
3273.9 kPa	1060.9 kg/m3
3294.9 kPa	1061 kg/m3
3316.1 kPa	1060.8 kg/m3
3341.2 kPa	1060.9 kg/m3
3361.8 kPa	1061 kg/m3
3387.1 kPa	1061.1 kg/m3
3409.1 kPa	1061 kg/m3
3431.1 kPa	1061 kg/m3
3452.8 kPa	1061 kg/m3
3479 kPa	1061.1 kg/m3
3502 kPa	1060.9 kg/m3
3524 kPa	1061.1 kg/m3
3546.7 kPa	1061.2 kg/m3
3574.4 kPa	1061.1 kg/m3
3597.5 kPa	1061.1 kg/m3
3620.7 kPa	1061.1 kg/m3
3648.8 kPa	1061.1 kg/m3
3672.5 kPa	1061.2 kg/m3
3696.2 kPa	1061.2 kg/m3
3720.5 kPa	1061.2 kg/m3
3749.6 kPa	1061.2 kg/m3
3773 kPa	1061.2 kg/m3
3845.7 kPa	1061.3 kg/m3
3868.4 kPa	1061.3 kg/m3
3891.5 kPa	1061.4 kg/m3
3914 kPa	1061.3 kg/m3
3941.5 kPa	1061.3 kg/m3
3964.7 kPa	1061.3 kg/m3
3987.6 kPa	1061.4 kg/m3
4009.4 kPa	1061.4 kg/m3
4029.8 kPa	1061.4 kg/m3
4033 kPa	1061.4 kg/m3
4416.7 kPa	1061.6 kg/m3
4447.7 kPa	1061.7 kg/m3
4473.5 kPa	1061.6 kg/m3
4500 kPa	1061.6 kg/m3
4526.4 kPa	1061.8 kg/m3
4559.5 kPa	1061.7 kg/m3
4586.3 kPa	1061.8 kg/m3
4619.9 kPa	1061.7 kg/m3
4643.6 kPa	1061.7 kg/m3
4676.5 kPa	1061.6 kg/m3
4704.4 kPa	1061.8 kg/m3
4732.4 kPa	1061.8 kg/m3
4765.8 kPa	1061.8 kg/m3
4794.4 kPa	1061.8 kg/m3
4823.6 kPa	1061.8 kg/m3
4858.1 kPa	1061.8 kg/m3
4887.2 kPa	1061.9 kg/m3
4916.6 kPa	1061.9 kg/m3
4946.3 kPa	1061.9 kg/m3
4983.2 kPa	1061.9 kg/m3
4995.1 kPa	1062.1 kg/m3
4995.4 kPa	1061.9 kg/m3
4997.5 kPa	1062.1 kg/m3
4999.9 kPa	1062 kg/m3
5001.3 kPa	1061.9 kg/m3
5002.4 kPa	1061.9 kg/m3
5003.4 kPa	1062 kg/m3
5003.7 kPa	1062 kg/m3
5004.3 kPa	1061.9 kg/m3
5004.6 kPa	1062 kg/m3
5004.8 kPa	1062 kg/m3
5005 kPa	1062 kg/m3
5005.3 kPa	1062.1 kg/m3
5005.5 kPa	1062 kg/m3
5005.6 kPa	1062.1 kg/m3 and 1062 kg/m3
5005.8 kPa	1062 kg/m3
5006 kPa	1061.8 kg/m3
5006.2 kPa	1061.9 kg/m3
5006.3 kPa	1061.9 kg/m3 and 1062 kg/m3
5006.5 kPa	1062.1 kg/m3 and 1062 kg/m3
5006.7 kPa	1061.9 kg/m3
5006.9 kPa	1061.9 kg/m3 and 1062 kg/m3
5007 kPa	1062.1 kg/m3 and 1062 kg/m3
5007.2 kPa	1061.9 kg/m3 and 1062.1 kg/m3 and 1062 kg/m3
5007.4 kPa	1061.9 kg/m3 and 1062 kg/m3
5007.5 kPa	1062 kg/m3
5007.7 kPa	1062 kg/m3 and 1061.9 kg/m3
5007.9 kPa	1062.1 kg/m3 and 1062 kg/m3
5008 kPa	1062 kg/m3 and 1062.1 kg/m3
5008.1 kPa	1061.9 kg/m3 and 1062.2 kg/m3 and 1062 kg/m3
5008.2 kPa	1062 kg/m3 and 1061.9 kg/m3
5008.3 kPa	1062 kg/m3 and 1061.9 kg/m3
5008.5 kPa	1062 kg/m3 and 1062.1 kg/m3
5008.6 kPa	1061.9 kg/m3
5009.4 kPa	1061.9 kg/m3
5009.6 kPa	1061.9 kg/m3 and 1062 kg/m3
5009.8 kPa	1062 kg/m3 and 1061.9 kg/m3
5010 kPa	1062 kg/m3
5010.1 kPa	1061.9 kg/m3 and 1062 kg/m3
5010.3 kPa	1062 kg/m3 and 1062.1 kg/m3 and 1061.9 kg/m3
5010.5 kPa	1061.9 kg/m3
5010.7 kPa	1062.1 kg/m3 and 1062 kg/m3
5010.8 kPa	1062 kg/m3 and 1061.9 kg/m3
5011 kPa	1062.2 kg/m3
5011.2 kPa	1062.1 kg/m3 and 1061.9 kg/m3
5011.3 kPa	1062 kg/m3
5011.7 kPa	1061.9 kg/m3 and 1062 kg/m3 and 1062.1 kg/m3
5011.9 kPa	1061.9 kg/m3 and 1062 kg/m3
5012 kPa	1061.9 kg/m3
5012.2 kPa	1062 kg/m3 and 1062.1 kg/m3 and 1061.9 kg/m3
5012.4 kPa	1062 kg/m3 and 1061.9 kg/m3 and 1062.1 kg/m3
5012.6 kPa	1062 kg/m3 and 1061.9 kg/m3 and 1061.8 kg/m3
5012.7 kPa	1062 kg/m3
5012.9 kPa	1062 kg/m3
5013.1 kPa	1062 kg/m3
5013.8 kPa	1062 kg/m3
5013.9 kPa	1062 kg/m3
5017.5 kPa	1062 kg/m3
5022.8 kPa	1062 kg/m3
5022.9 kPa	1062.1 kg/m3
5025.4 kPa	1062 kg/m3
5025.5 kPa	1062 kg/m3
